SMILES | melting point
CC(C)C1=C(C#N)C(c2cccc3nonc23)c2c[nH]nc2N1 (centres unmarked) [Example 264, 4-(2,1,3-Benzoxadiazol-4-yl)-5-cyano-4,7-dihydro-6-isopropyl-2H-pyrazolo[3,4-b]pyridine] | 222 to 223 °C (dec.)
CCCC1=C(C#N)C(c2cccc(Cl)c2Cl)c2c[nH]nc2N1 (centres unmarked) [Example 134, 5-Cyano-4-(2,3-dichlorophenyl)-4,7-dihydro-6-propyl-2H-pyrazolo[3,4-b]pyridine] | 242 °C
CCCC1=C(C(=O)OCC)C(c2ccoc2C)c2c[nH]nc2N1 (centres unmarked) [Example 61, Ethyl 4,7-dihydro-4-(2-methylfuran-3-yl)-6-propyl-2H-pyrazolo[3,4-b]pyridine-5-carboxylate] | 123 to 125 °C
Cl.N#CC1=C(C2CCNCC2)Nc2n[nH]cc2C1c1cccc2nonc12 (centres unmarked) | > 270 °C
CC(=O)C1=C(C#N)C(c2cccc3nonc23)c2c[nH]nc2N1 (centres unmarked) [Example 1082, 6-Acetyl-4-(2,1,3-benzoxadiazol-4-yl)-5-cyano-4,7-dihydro-2H-pyrazolo[3,4-b]pyridine] | 230 °C (dec.)
CC(C)C1=C(C#N)C(c2cccc3nocc23)c2c[nH]nc2N1 (centres unmarked) [Example 332, 4-(2,1-Benzoisoxazol-4-yl)-5-cyano-4,7-dihydro-6-isopropyl-2H-pyrazolo[3,4-b]pyridine] | 245 °C
CC(C)(C)C1=C(C#N)C(c2ccccc2Cl)c2c[nH]nc2N1 (centres unmarked) [Example 307, 6-t-Butyl-4-(2-chlorophenyl)-5-cyano-4,7-dihydro-2H-pyrazolo[3,4-b]pyridine] | 198 °C
N#CC1=C(C2CCCC2)Nc2n[nH]cc2C1c1ccccc1Cl (centres unmarked) [Example 316, 4-(2-Chlorophenyl)-5-cyano-6-cyclopentyl-4,7-dihydro-2H-pyrazolo[3,4-b]pyridine] | 225 °C
N#CC1=C(C2CCCCCC2)Nc2n[nH]cc2C1c1cccc(C#N)c1Br (centres unmarked) [Example 326, 4-(2-Bromo-3-cyanophenyl)-5-cyano-6-cycloheptyl-4,7-dihydro-2H-pyrazolo[3,4-b]pyridine] | 252 °C
CCCC1=C(C#N)C(c2ccccc2[N+](=O)[O-])c2c[nH]nc2N1 (centres unmarked) [Example 132, 5-Cyano-4,7-dihydro-4-(2-nitrophenyl)-6-propyl-2H-pyrazolo[3,4-b]pyridine] | 216 °C
CC(=O)CC1=C(C#N)C(c2cccc3nonc23)c2c[nH]nc2N1 (centres unmarked) [Example 1061, 6-Acetylmethyl-4-(2,1,3-benzoxadiazol-4-yl)-5-cyano-4,7-dihydro-2H-pyrazolo[3,4-b]pyridine] | 200 °C
Cl.Cl.Cl.N#CC1=C(CN2CCN(c3cccc4ccccc34)CC2)Nc2n[nH]cc2C1c1ccccc1Cl (centres unmarked) | 203 to 205 °C (dec.)
N#CC1=C(C2CCN(C(=O)c3ccccc3)CC2)Nc2n[nH]cc2C1c1cccc(C#N)c1Br (centres unmarked) [Example 1052, 6-(1-Benzoylpiperidin-4-yl)-4-(2-bromo-3-cyanophenyl)-5-cyano-4,7-dihydro-2H-pyrazolo[3,4-b]pyridine] | > 280 °C
N#CC1=C(c2ccccc2)Nc2n[nH]cc2C1c1cccc2nonc12 (centres unmarked) [Example 158, 4-(2,1,3-Benzoxadiazol-4-yl)-5-cyano-4,7-dihydro-6-phenyl-2H-pyrazolo[3,4-b]pyridine] | 231 °C
N#CC1=C(C2CCN(C(=N)N)CC2)Nc2n[nH]cc2C1c1cccc2nonc12 (centres unmarked) [Example 1031, 4-(2,1,3-Benzoxadiazol-4-yl)-5-cyano-4,7-dihydro-6-(1-guanylpiperidin-4-yl)-2H-pyrazolo[3,4-b]pyridine] | > 270 °C
CCCC1=C(C#N)C(c2ccccc2Cl)c2c[nH]nc2N1C (centres unmarked) [Example 346, 4-(2-Chlorophenyl)-5-cyano-7-methyl-6-propyl-4,7-dihydro-2H-pyrazolo[3,4-b]pyridine] | 170 to 171 °C
CCCC1=C(C#N)C(c2ccccc2Cl)c2c(n[nH]c2-c2cccs2)N1 (centres unmarked) [Example 294, 4-(2-Chlorophenyl)-5-cyano-4,7-dihydro-6-propyl-3-(thiophen-2-yl)-2H-pyrazolo[3,4-b]pyridine] | 256 °C
COc1ccccc1C1C(C#N)=C(c2cccs2)Nc2n[nH]cc21 (centres unmarked) [Example 242, 5-Cyano-4,7-dihydro-4-(2-methoxyphenyl)-6-(thiophen-2-yl)-2H-pyrazolo[3,4-b]pyridine] | 215 °C
CCCC1=C(C#N)C(c2cccc3nonc23)c2c[nH]nc2N1 (centres unmarked) [Example 137, 4-(2,1,3-Benzoxadiazol-4-yl)-5-cyano-4,7-dihydro-6-propyl-2H-pyrazolo[3,4-b]pyridine] | 194 °C

Second part, the compound after the results:

melting point | SMILES
80 °C | CCCC1=C(C(=O)OCC)C(c2ccccc2Cl)c2cnn(C(=O)OCc3ccccc3)c2N1 (centres unmarked) [Example 208, Ethyl 1-benzyloxycarbonyl-4-(2-chlorophenyl)-4,7-dihydro-6-propyl-1H-pyrazolo[3,4-b]pyridine-5-carboxylate]
171 to 172 °C | CCOC(=O)C1=C(C(F)(F)F)Nc2n[nH]cc2C1c1ccccc1Cl.O=C(O)/C=C\C(=O)O (centres unmarked) [Example 14, Ethyl 4-(2-chlorophenyl)-4,7-dihydro-6-trifluoromethyl-2H-pyrazolo[3,4-b]pyridine-5-carboxylate maleate]
185 °C | CCCC1=C(C(=O)OCC)C(c2c(F)cccc2F)c2c[nH]nc2N1 (centres unmarked) [Example 54, Ethyl 4-(2,6-difluorophenyl)-4,7-dihydro-6-propyl-2H-pyrazolo[3,4-b]pyridine-5-carboxylate]
190 °C | CCOC(=O)C1=C(c2ccccc2)Nc2n[nH]cc2C1c1cccc2nonc12 (centres unmarked) [Example 114, Ethyl 4-(2,1,3-benzoxadiazol-4-yl)-4,7-dihydro-6-phenyl-2H-pyrazolo[3,4-b]pyridine-5-carboxylate]
205 to 206 °C | CCCC1=C(C(=O)OCC)C(c2cccc(OC)c2OC)c2c[nH]nc2N1 (centres unmarked) [Example 46, Ethyl 4-(2,3-dimethoxyphenyl)-4,7-dihydro-6-propyl-2H-pyrazolo[3,4-b]pyridine-5-carboxylate]
175 °C | CCCCc1ccccc1C1C(C(=O)OCC)=C(CCC)Nc2[nH]ncc21 (centres unmarked) [Example 102, Ethyl 4-(2-butylphenyl)-4,7-dihydro-6-propyl-1H-pyrazolo[3,4-b]pyridine-5-carboxylate]
207 °C | CCCC1=C(C(=O)OCC)C(c2cccc3nonc23)c2c[nH]nc2N1 (centres unmarked) [Example 76, Ethyl 4-(2,1,3-benzoxadiazol-4-yl)-4,7-dihydro-6-propyl-2H-pyrazolo[3,4-b]pyridine-5-carboxylate]
128 °C | CCCC1=C(C(=O)OCC)C(c2ccccc2OCc2ccccc2)c2c[nH]nc2N1 (centres unmarked) [Example 38, Ethyl 4-(2-benzyloxyphenyl)-4,7-dihydro-6-propyl-2H-pyrazolo[3,4-b]pyridine-5-carboxylate]
159 to 161 °C | CCCC1=C(C(=O)OCC)C(c2cccc3c2OCCC3)c2c[nH]nc2N1 (single isomer, unassigned; (+)) [Example 187, (+)Ethyl 4-(3,4-dihydro-2H-benzopyran-8-yl)-4,7-dihydro-6-propyl-2H-pyrazolo[3,4-b]pyridine-5-carboxylate]
213 to 215 °C | CCCC1=C(C(=O)OCC)C(c2cccc(C#N)c2Cl)c2c[nH]nc2N1 (centres unmarked) [Example 180, Ethyl 4-(2-chloro-3-cyanophenyl)-4,7-dihydro-6-propyl-2H-pyrazolo[3,4-b]pyridine-5-carboxylate]

Reference: patent publication US6977262B2, “Dihydropyrazolopyridine compounds and pharmaceutical use thereof” (Mitsubishi Pharma Corporation, priority 2001, dated 2005)
